What was measured:
[1] = test system: Adult normal human primary keratinocytes (tight junction integrity); experiment: Transepithelial electrical resistance (TEER) of differentiated keratinocyte monolayers; format: cell-based; conditions: for % Change in TEER (additional increase): 24 h
Description: (§1) Adult normal human primary keratinocytes (Invitrogen, Carlsbad, Calif., USA) were maintained in EpiLife® medium with 60 μM calcium (Invitrogen) supplemented with Human Keratinocyte Growth Supplement (HKGS) (Invitrogen) (basal medium) at 5% CO2 atmosphere. To differentiate the keratinocytes, the P5-P7 cells were plated on ThinCert™ cell culture inserts (Greiner Bio-one, Frickenhausen, Germany) at density of 10^5cells/cm^2. After overnight incubation at 5% CO2 atmosphere the basal medium was aspirated and changed to differentiation medium (DM) consisting of EpiLife® medium with 1.45 mM CaCl2 supplemented with human keratinocyte growth supplement and incubated for 4 days at 5% CO2 atmosphere. DM was changed both at both the apical and basolateral side every day. Test substances were given at fourth day after starting the differentiation.
(§2) Betaine (Danisco) were dissolved in DM, and applied to apical side of differentiated keratinocytes at amounts of 0, 10, 50, 100, 250 and 500 μM. The cells were incubated for 1, 12, and 24 hours at which points TEER was measured as described below. […]
The integrity of the monolayer was verified by measuring TEER before and after each time point using Millicell-ERS system (Millipore, Billerica, Mass., US) (26). The TEER obtained from the monolayer and the insert was subtracted with background TEER obtained from the insert to yield the monolayer resistance and multiplied with the area of the insert to obtain the result as ohm×cm^2. For the experiments with betaine and probiotics the results are expressed as a percentage change in TEER (% Change in TEER) which reflects the change in the resistance in the given time point compared to a control time point, which was the same cell monolayer before applying the test substances.

claudin-4 (CLDN4) = experiment: Real-time quantitative PCR of claudin-4 expression in differentiated keratinocytes; format: cell-based, human; conditions: betaine 10-500 μM, 24 h
Description: as §1, §2
The differentiated keratinocytes were treated with soluble metabolites produced by probiotics, probiotic whole bacterial cells, and bacterial cell lysates from the apical side for 1 h, 8 h and 24 h at which the TEER was measured. […]

occludin (OCLN) = experiment: Real-time quantitative PCR of occludin expression in differentiated keratinocytes; format: cell-based, human; conditions: 24 h, p<0.05
Description: as §1, with “Test substances were given at fourth day after starting the differentiation.” left out
as §2
(§3) Real-time quantitative PCR of claudin-4 (CLDN4), occludin (OCLN), zonula occludens-1 (ZO-1) was done with TaqMan gene expression assays (Applied biosystems, Foster City, Calif., USA) designed for each specific gene in an amplification reaction of 20 μl according to manufacturer's instructions with 7500 Fast Real-time PCR System (Applied Biosystems). […]

[2] = test system: zonula occludens-1 (ZO-1); experiment: Real-time quantitative PCR of zonula occludens-1 expression in differentiated keratinocytes; format: cell-based, human; conditions: betaine 10-500 μM, 24 h
Description: as §1, with “Test substances were given at fourth day after starting the differentiation.” left out
as §2, §3

SMILES: C[N+](C)(C)CC(=O)O [betaine, Betaine]
- % Change in TEER ([1]; 50 μM and higher concentrations of betaine, after 12 h, p<0.05 to p<0.001): remained increased
- % Change in TEER ([1]; 50 μM betaine, after 1 hour, p<0.05): increased
- % Change in TEER (additional increase) ([1]; 100 μM betaine, p<0.05, mean±SE): 41.8±2.8%
- % Change in TEER (additional increase) ([1]; 500 μM betaine, p<0.01, mean±SE): 47.8±4.2%
- % Change in TEER ([1]; lowest amount of betaine (10 μM), apical side): remained at the basal level
- Expression of CLDN4 (claudin-4 (CLDN4)): remained similar to the basal levels
- Expression of OCLN (occludin (OCLN); 100 μM betaine): decreased
- Expression of OCLN (occludin (OCLN); 250 μM betaine): decreased
- Expression of ZO-1 [2]: remained similar to the basal levels

Reference: US10555977B2, “Probiotic bacteria for the topical treatment of skin disorders” (DUPONT NUTRITION BIOSCIENCES APS, priority 2011, dated 2020)
